Test results taken from article PMC8977034, “Amphipathic dendritic poly-peptides carrier to deliver antisense oligonucleotides against multi-drug resistant bacteria in vitro and in vivo” (Journal of Nanobiotechnology, 2022).

Key:
[1] = test system: E. coli, ESBLs-E. coli, S. aureus and MRSA; test: Delivery efficiency by flow cytometry, tested strains together; assay type: cell-based; settings: FAM-labeled, 1 h, 37 °C, flow cytometry (Fig. S9, S10)
Procedure: To measure the delivery efficiency, FAM-labeled DP-AD were added to bacterial cultures (approximately 5 × 10^6 CFU in 300 μl M–H broth) and incubated at 37 °C for 1 h away from light. The bacterial solutions were centrifuged at 2500 g at 4 °C for 5 min and washed twice with phosphate buffered saline (PBS) before analyzing them using the BL1 (green) channel in flow cytometry (Novocyte, Acer, USA). Data were analyzed using Flowjo software (version 10.0.7, Tree Star, Ashland, OR, USA). Free FAM-labeled ASOs and LF2000-NPs were used as the negative and positive control, respectively.
To measure the delivery rate of DP-AD7 in different types of bacteria, the bacteria (approximately 5 × 10^6 CFU in 300 μl M–H broth) were incubated with FAM-labeled DP-AD7 for 5, 10, 30 or 60 min at 37 °C or at 4 °C for 60 min in dark, then the bacterial solutions were processed, measured and analyzed as described above.

ESBLs-E. coli [2] = test: Survival assay in mouse sepsis model; assay type: in vivo, male Balb/c mice; settings: text 1.5 mg kg^−1, methods and Fig. 5 legend 4 mg/kg; i.p. at 0.5 and 6 h after infection; n = 10
Procedure: Male Balb/c mice (6–8 weeks old and weighing 18–22 g) were used in this experiment. The experimental and animal care procedures were approved by the Animal Care and Use Committee of Fourth Military Medical University. All methods were carried out strictly in accordance with the approved guidelines. 4 × 10^5 CFU ESBLs-E. coli in 400 μl M–H broth were administrated intraperitoneally into the mice to construct a sepsis model. Then, the mice were randomly divided to ten groups, which were administered intraperitoneally with 400 μL solutions containing 0.5 (based on ASOs), 1 or 1.5 mg kg^−1 DP-AD7anti-acpP and the counterpart DP-AD7mismatch, 1.5 mg kg^−1 L-DP-AD7anti-acpP, 1.5 mg kg^−1 LF2000-NPsanti-acpP, 4 mg kg^−1 ceftazidime or PBS at 0.5 and 6 h after infection. The surviving mice in each group were monitored every 6 h for the first day, afterwards, monitored every 12 h for 7 days day after infection, and the survival ratio was analyzed by Kaplan–Meier estimator.

ESBLs-E. coli [3] = test: Bacterial load (CFU) in organs of septic mice; assay type: in vivo, male Balb/c mice; settings: text 1.5 mg kg^−1, methods 4 mg kg^−1; ten hours after infection; mean ± SE
Procedure: Two mice in each group were sacrificed 10 h after infection to study the bacterial clearance. The liver and kidney were harvested aseptically, one kidney and one lobe of liver of each mouse were weighed, and homogenized in 500 μl sterile saline solution, then 50 μl homogenate sample of each mice was performed serial tenfold dilutions to a 10^–5 dilution. Carefully spread 100 μL of each dilution onto a M–H agarose plate using a glass spreader. Incubate plates at 37 °C overnight and calculate the bacterial load. Colony counts were expressed as CFU g^−1 of tissue.

Row | Compound | Capacity to deliver ASOs into bacteria [1] | Survival rate of septic mice, ceftazidime (ESBLs-E. coli [2]) [%] | Average bacterial load in the kidney, ceftazidime (ESBLs-E. coli [3])
1 | Ac-LWALWK(Ac)K(Ac)K(Ac)RRHRRRHR [L-DPP, linear counterpart of DPP7, amphipathic, 9 positive charge and 2 His residues] | failure |  | 
2 | CC(C)(O/N=C(\C(=O)N[C@@H]1C(=O)N2C(C(=O)[O-])=C(C[n+]3ccccc3)CS[C@H]12)c1csc(N)n1)C(=O)O [ceftazidime] |  | 30 | 8.41 ± 1.60 × 10^7 CFU g^−1
